From ChEMBL document CHEMBL1201862, “PubChem BioAssay data set” (2004) come the findings set out here.

Among the test systems are T47D; DLD-1; SNB-78; HOP-18; M19-MEL; DMS-273; DMS-114; XF498.
Test in all cases: inhibition of tumour cell growth, NCI panel, 48 h

Each structure is given as a SMILES string.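 Exposure lasted 48 hours, with cells grown in 96-well plates and compounds tested at five concentrations. Here, GI50 denotes the concentration required for 50% inhibition of growth.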 The source made the active and inactive calls. Rule as the data show it: active = GI50 up to about 1.1 µM and inactive = higher. A value given as a limit tells only on which side of the number the result lay.

Turning to `Cn1c(=O)c2[nH]c(CCC(=O)O)nc2n(C)c1=O`, in the assay on T47D, the GI50 is > 100 µM (inactive). On the same count and under the same terms, next, `COc1ccccc1NC(=O)C(=O)Cc1cnc2ccccc2n1`: > 100 µM (inactive). Still for that read-out and setting: next, `O=[N+]([O-])c1ccc(SN=S=NSc2cccc(SN=S=NSc3ccc([N+](=O)[O-])cc3)c2)cc1`: 11.1 µM (inactive). With `COc1cc(C(C#N)NNC(=O)c2ccccc2O)ccc1O` (configuration not stated), the GI50 is 4.22 µM (inactive) with DLD-1, 3.2 µM (inactive) in the assay with SNB-78, 4.91 µM (inactive) in the assay on HOP-18 and 3.58 µM (inactive) with M19-MEL. With `CC(C)C(NC(=O)C(Cc1ccccc1)NC(=O)[C@H]1CCC[C@H]1NC(=O)C(N)Cc1ccc(O)cc1)C(N)=O` (some centres not stated), the GI50 with T47D is > 100 µM (inactive). Still for that read-out and setting: then `Cc1ccc(C)n2c1nc1ccc3ccccc3c12`, with 45 µM (inactive); and `c1cc(CNCCN2CCNCC2)ccn1`, with > 100 µM (inactive). As to `CCCCCCCCCC(=O)CC(=O)c1ccc(O)cc1O`, the GI50 with DLD-1 was 28.5 µM (inactive); in the assay on HOP-18, 20.1 µM (inactive); in the assay with DMS-273, 28.2 µM (inactive).

With `Cc1ccc(-c2n[nH]c(=O)[nH]2)cc1`, the GI50 in the assay on T47D is > 46.5 µM (inactive).

With `CCCCCCCCCCCCCCCCCCNC(=S)N/C=C1\C(=O)Nc2ccccc2C1=O`, the GI50 in the assay on T47D is 24.7 µM (inactive). Same read-out and setting: then `C[C@H]1CC[C@@H]2[C@@H](C)[C@H]3[C@H](C[C@H]4[C@@H]5CC=C6C[C@@H](O)CC[C@]6(C)[C@H]5C[C@H](O)[C@]34C)N2C1`, with > 100 µM (inactive). Still for that read-out and setting: next, `C[C@H]1CCC/C=C/[C@@H]2C[C@H](OC(=O)CN(C)C)C[C@H]2[C@H](O)/C=C/C(=O)O1`: 0.329 µM (active). Consider `CCOC(=O)c1ccc(/N=C2/C(=S)N(c3ccc(C(=O)OCC)cc3)C(=N)N2/N=C/c2ccccc2)cc1`, for which the GI50 with T47D is 2.77 µM (inactive).

In the case of `CO/C(=N\N=C\c1ccc(OC)cc1OC)c1ccncc1`, the GI50 with T47D was > 10 µM (inactive).

For `COc1ccc2nc(N/N=C/c3sccc3C)cc(C)c2c1`, the GI50 in the assay on T47D was 42.9 µM (inactive). Still for that read-out and setting: then `O=C(c1ccco1)N(C(=S)OCc1ccccn1)c1ccccc1`, with 25.1 µM (inactive). Same read-out and setting: next, `CS/C(=N\Nc1cnc2ccccc2n1)NS(=O)(=O)c1cc(C)c(Cl)cc1Cl`: > 100 µM (inactive); `O=C(NCCCl)N(O)C(=O)Nc1ccccc1`: > 100 µM (inactive). Still for that read-out and setting: then `C/C(=N/NC(=S)N(Cc1ccccn1)Cc1ccccn1)c1cnccn1`, with 0.231 µM (active); and `CC1(C)CC(=O)C2=C(C1)C(c1ccccc1Cl)C1C(=O)CC(C)(C)CC1(O)O2` (configuration not stated), with > 100 µM (inactive). Regarding `Cc1c(O)c(O)cc[n+]1C1OC(CO)C(O)C1O` (configuration not stated), the GI50 with DLD-1, in the assay on SNB-78, in the assay on HOP-18, in the assay with DMS-273 and in the assay with M19-MEL was > 100 µM (inactive) each time. For `CN1C(=O)N/C(=C\c2ccc(S(=O)(=O)N/N=C/c3ccccc3)cc2)C1=O`, in the assay with T47D, the GI50 was 35.2 µM (inactive).

For `CCC12C=CCN3CCC4(C(=C(C(=O)OC)C1)Nc1ccccc14)[C@H]32` (some centres not stated), the GI50 in the assay on DMS-114 was 19.2 µM (inactive); in the assay with DLD-1, 40.4 µM (inactive); with HOP-18, 26.5 µM (inactive); in the assay on DMS-273, 17.9 µM (inactive); with M19-MEL, 31.3 µM (inactive). On to `c1cn[nH]c1` [PYRAZOLE], for which, in the assay with T47D, the GI50 was > 10 µM (inactive).

Take `CO[C@@]12C[C@H](CNC(=O)c3ccc[nH]3)O[C@@H]1NC(=O)N2`: the GI50 in the assay with T47D is > 100 µM (inactive). Consider `Nc1nc(N)c(-c2ccccc2)c(CCC(=O)Nc2ccc(Cl)cc2)n1`, for which the GI50 in the assay on DLD-1, in the assay on SNB-78, in the assay on HOP-18, in the assay with DMS-273 and in the assay on M19-MEL was > 100 µM (inactive) in each case.

As for `Brc1ccc2[nH]cc([C@H]3CN[C@@H](c4c[nH]c5ccc(Br)cc45)CN3)c2c1`, the GI50 in the assay on T47D was 2.66 µM (inactive). On the same count and under the same terms, then `CN1c2ccc(Cl)cc2C(=O)NC1c1ccc([N+](=O)[O-])s1` (configuration not stated), with 15 µM (inactive); and `BrC1=C(Br)C2(SCCS2)[C@H]2C[C@@H]1c1ccccc12`, with 24.6 µM (inactive). Same read-out and setting: next, `Clc1ccc(/N=C/C=C/Nc2ccc(Cl)cn2)nc1`: 18.3 µM (inactive). On the same count and under the same terms, next, `O=[N+]([O-])c1ccc(CN(CCCl)OCCCl)cc1`: 74.5 µM (inactive); `CC(=O)NCCCCN(CCCNC(C)=O)C(=O)CNS(=O)(=O)c1cccc2c(N(C)C)cccc12`: > 100 µM (inactive). Turning to `Cc1cc(Br)cc(C)c1NC(=O)C(=O)Nn1c(S)nc2ccccc2c1=O`, the GI50 with T47D was > 100 µM (inactive). The same measure, in the same setting: then `CC(C)=CC(=O)c1[nH]c2ccccc2c1CC(=O)NCCc1cncn1C`, with 34.6 µM (inactive). The same measure, in the same setting: next, `O=C(NNc1cn[nH]c(=O)n1)c1cccc2nc3ccccc3nc12`: > 100 µM (inactive); `CSc1ncc2c(n1)C(C#N)C1Sc3ccccc3N1C2=O` (configuration not stated): > 100 µM (inactive). On the same count and under the same terms, next, `COc1ccc(C(SC2C(O)C(CO)OC2n2ccc(N)nc2=O)(c2ccccc2)c2ccc(OC)cc2)cc1` (configuration not stated): 19.1 µM (inactive); `CC1S/C(=N\N=C2/C(=O)Nc3ccc(Br)cc32)N(C2CCCCC2)C1=O` (configuration not stated): 3.96 µM (inactive); `Cc1cc2c(cc1Cl)SC(c1ccccc1O)NS2(=O)=O` (configuration not stated): 6.95 µM (inactive). For the compound `O=C(O)c1ccccc1NC(c1ccccc1)c1ccc2cccnc2c1O` (configuration not stated), the GI50 in the assay on T47D is 11.3 µM (inactive). On the same count and under the same terms, next, `Nc1c2ccccc2nc2c1ccc1ncccc12`: 27.5 µM (inactive); `O=C(O)c1cc(NC2=C(Cl)C(=O)c3c(O)ccc(O)c3C2=O)ccc1O`: > 10 µM (inactive). For `OCC(O)COCn1nncc1Cn1ncc2c(SCc3ccccc3)ncnc21` (configuration not stated), the GI50 with T47D is > 100 µM (inactive).

On to `CC(C)[C@H](NC(=O)[C@@H](O)[C@H](N)Cc1ccccc1)C(=O)N[C@@H](Cc1ccccc1)C(=O)O`, for which the GI50 in the assay with T47D is > 100 µM (inactive). Still for that read-out and setting: then `O=C1NC2(CCN(CCc3ccccc3)CC2)Oc2ccccc21`, with 49.7 µM (inactive); and `COc1cc(C(=O)N(C)N(C)C)cc(OC)c1OC`, with > 10 µM (inactive). The same measure, in the same setting: then `Cc1cc(-c2nc3ccc(F)cc3s2)ccc1NC(=O)[C@H](C)N`, with 0.0559 µM (active). Consider `N#CC(C#N)=C(N)/C(C#N)=C/c1ccc2[nH]ccc2c1`, for which the GI50 with DMS-114 is > 100 µM (inactive); in the assay with SNB-78, > 100 µM (inactive); in the assay on HOP-18, 71.4 µM (inactive); in the assay on DMS-273 it was > 100 µM (inactive); in the assay with M19-MEL, > 100 µM (inactive); with T47D it was > 100 µM (inactive). With `OCc1ccc(C2CC(c3ccco3)=NN2c2ccccc2)o1` (configuration not stated), the GI50 in the assay on DMS-114, in the assay with SNB-78, in the assay with XF498, with DMS-273 and with M19-MEL was > 100 µM (inactive) in each case. `COP1(=O)NCc2ncccc2O1` (configuration not stated): the GI50 in the assay with T47D was > 100 µM (inactive). On the same count and under the same terms, then `CO[C@H]1C[C@H](O[C@H]2CC[C@]3(C=O)[C@H]4CC[C@]5(C)[C@@H](C6=CC(=O)OC6)CC[C@]5(O)[C@@H]4CC[C@]3(O)C2)O[C@H](C)[C@H]1O[C@@H]1O[C@H](CO[C@@H]2O[C@H](CO)[C@@H](O)[C@H](O)[C@H]2O)[C@@H](O)[C@H](O)[C@H]1O`, with 0.0527 µM (active).
